Source: ChEMBL document CHEMBL1129053, “Synthesis and pharmacology of a very potent cannabinoid lacking a phenolic hydroxyl with high affinity for the CB2 receptor” (J Med Chem, 1996)

Test system: Mus musculus
Experiment: Compound was evaluated in vivo for Pharmacology response in the mouse model Spontaneous Activity
Assay type: functional

With CCCCCc1cc(O)c2c(c1)OC(C)(C)[C@@H]1CCC(C)=C[C@@H]21 [DRONABINOL] the ED50 was 2.9 µmol/kg.
